Data on 13 compounds can be found in ChEMBL document CHEMBL1153711, “Synthesis and antimycobacterial evaluation of novel 5,6-dimethoxy-1-oxo-2,5-dihydro-1H-2-indenyl-5,4-substituted phenyl methanone analogues” (Bioorg Med Chem Lett, 2009).

For this assay, the system named is Mycobacterium tuberculosis. Description: Antimycobacterial activity against Mycobacterium tuberculosis H37Rv by agar dilution method. The class given is functional.

Values after ≈ are worked out from the molar mass of the structure shown. Some results are limits rather than exact numbers.

As usually defined, the MIC is the lowest concentration that inhibits growth of the organism. `COc1cc2c(cc1OC)C(=O)C(C(=O)c1c(Cl)cccc1Cl)C2` (stereo not drawn): the minimum inhibitory concentration (MIC) is 2.48 µM (≈ 0.906 µg/mL). To `COc1cc2c(cc1OC)C(=O)C(C(=O)c1cccc([N+](=O)[O-])c1)C2` (stereo not drawn) belongs 3.46 µM (≈ 1.18 µg/mL). Compound `COc1cc2c(cc1OC)C(=O)C(C(=O)c1ccc(Br)cc1)C2` (stereo not drawn) yielded a minimum inhibitory concentration (MIC) of 4.94 µM (≈ 1.85 µg/mL). The MIC values of the last two compounds are within 1.5-fold of each other. `COc1cc2c(cc1OC)C(=O)C(C(=O)c1ccc(C#N)cc1)C2` (stereo not drawn) registered an MIC of more than 6.25 µM. As for `COc1cc2c(cc1OC)C(=O)C(C(=O)c1ccc(N(C)C)cc1)C2` (stereo not drawn), the figure is 5.94 µM (≈ 2.02 µg/mL); as for `COc1ccc(C(=O)C2Cc3cc(OC)c(OC)cc3C2=O)cc1` (stereo not drawn), more than 6.25 µM; as for `COc1cc2c(cc1OC)C(=O)C(C(=O)c1ccc(Cl)cc1)C2` (stereo not drawn), 1.52 µM (≈ 0.503 µg/mL). `COc1cc2c(cc1OC)C(=O)C(C(=O)c1ccccc1)C2` (stereo not drawn) gave an MIC of 6.62 µM (≈ 1.96 µg/mL). This MIC is about 4.4-fold higher than that of the compound before. For `COc1ccc(C(=O)C2Cc3cc(OC)c(OC)cc3C2=O)cc1OC` (stereo not drawn), the minimum inhibitory concentration (MIC) was more than 6.25 µM.

`COc1cc2c(cc1OC)C(=O)C(C(=O)c1cc(OC)c(OC)c(OC)c1)C2` (stereo not drawn) yielded a minimal inhibitory concentration (MIC) of more than 6.25 µM. `COc1cc2c(cc1OC)C(=O)C(C(=O)c1ccc(F)cc1)C2` (stereo not drawn) had a minimal inhibitory concentration (MIC) of 0.1 µM (≈ 0.0314 µg/mL). This counts as sub-micromolar.

For the compound `COc1cc2c(cc1OC)C(=O)C(C(=O)c1ccccc1Cl)C2` (stereo not drawn), the minimum inhibitory concentration (MIC) worked out at 1.82 µM (≈ 0.602 µg/mL). `NNC(=O)c1ccncc1` [ISONIAZID]: the minimum inhibitory concentration (MIC) was determined as 0.75 µM (≈ 0.103 µg/mL).
